The values that follow are results of earlier work, collected in US9358096B2, “Methods of treatment with drug eluting stents with prolonged local elution profiles with high local concentrations and low systemic concentrations” (Abbott Laboratories, priority 2007, dated 2016).

For data set [1] the following is noted: kidney transplant recipients; usual oral dose of sirolimus of 2 mg per day; cited from earlier work.
For data set [2] the following is noted: cited from earlier work.

Consider `CO[C@H]1C[C@@H]2CC[C@@H](C)[C@@](O)(O2)C(=O)C(=O)N2CCCC[C@H]2C(=O)O[C@H]([C@H](C)C[C@@H]2CC[C@@H](O)[C@H](OC)C2)CC(=O)[C@H](C)/C=C(\C)[C@@H](O)[C@@H](OC)C(=O)[C@H](C)C[C@H](C)/C=C/C=C/C=C/1C` [sirolimus], for which the trough concentration in data set [1] was 9 ng/mL. Also, the “peak concentration of sirolimus, one patient” value in data set [2] (after receiving three 80 mm stents configured as stent 1) was 35.5 ng/mL. Besides, in data set [2] (patients treated with stent 1, one hour after stenting), the “mean systemic sirolimus concentration” value was 20.4 ± 10.0 ng/mL.
